From PMC7153278, “Discovery of Membrane-Bound Pyrophosphatase Inhibitors Derived from an Isoxazole Fragment” (ACS Medicinal Chemistry Letters, 2020)

Molecular target: Thermotoga maritima mPPase (TmPPase) (Thermotoga maritima, UniProt Q9S5X0)
Experiment: TmPPase inhibition assay (96-well plate, orthophosphate determination)
Type: biochemical
Settings: for LE (ligand efficiency): computed using the pIC50 and the Heavy Atom Count (LEHA) normalization method, Discovery Studio; for biological activity (in words): TmPPase; for IC50 [CI95%] / IC50: purified TmPPase; for fold loss in activity compared to the carboxylic acids: 2-bromophenyl carboxylates 25 and 26 versus 5 and 23; call rule not given here
Description: The inhibition assay was measured in 96 well plate assay as previously reported.5,6 Briefly, 1 µL of purified TmPPase (13 mg/mL) was reactivated in 99 µL of reactivation buffer (20 mM 2-(N-morpholino) ethanesulfonic acid (MES) pH 6.5, 3.5% (v/v) glycerol, 2 mM dithiothreitol (DTT), 4.5% dodecyl maltoside (DDM) and 12 mg/mL L-α-phosphatidylcholine from soybean) and incubated at 55 °C for 15 min. For the assay, to each tube strips, 0.2 µL of the reactivated enzyme was added to 14.8 µL of reaction buffer (200 mM Tris-Cl pH 8.0, 8.0 mM MgCl2, 333 mM KCl, and 67 mM NaCl) and 25 µL of inhibitor. The reaction mixtures were sealed with an adhesive sealing sheet (Thermo Scientific) and incubated at 71 °C for 5 min. The reactions were started with the addition of 10 µL of 2 mM sodium pyrophosphate, further incubation at 71 °C for 5 min and stopped by placing the reaction mixtures on ice for 10 min. The color development was done with the addition of ammonium heptamolybdate + ascorbic acid solution on ice for 10 min and then 90 µL of arsenic solution, at room temperature, for a minimum of 30 min. 180 µL of each reaction mixtures was then transferred into a clear 96 well polystyrene microplate and the absorbance was measured at 860 nm using a microplate spectrophotometer (MultiSkan Go, Thermo Scientific). The pilot inhibitor screening of 16 phosphate-mimicking fragments was done at 100 μM inhibitor concentration. Further screening was done with three different concentrations; 1 μM, 5 μM and 50 μM for soluble compounds, and 1 μM, 5 μM, and 20 μM for sparingly soluble compounds.6 The best hits were validated using 8 concentrations in triplicate in TmPPase.
The potent hits 12k and 12l compounds were then tested on the P. falciparum (PfPPase-VP1) membrane fractions expressed in baculovirus-infected insect cells (the expression method and further enzyme analysis will be described in more detail elsewhere). Briefly, to each tube strips, 2.4 µL of PfPPase-VP1 membrane fraction (5 mg/mL) was added into 12.6 µL of reaction buffer (200 mM Tris-Cl pH 8.0, 8.0 mM MgCl2, 333 mM KCl, 67 mM NaCl, 3.3 mM NaF, and 17 μM Gramicidin D) and 25 µL of inhibitor. The reaction mixtures were incubated at 30 °C for 5 min and the assay was started by the addition of 10 µL of 2 mM sodium pyrophosphate and further incubation at 30 °C for 10 min. The reaction termination and color development were done as before.
The in vitro anti-plasmodial activity assay strain 3D7 was maintained in culture as described previously.7 Briefly, parasites were cultured in O+ human erythrocytes at 5% haematocrit in RPMI - 1640 medium supplemented with 0.5% Albumax II (Gibco, Carlsbad, CA, USA), 200 μM hypoxanthine (Sigma, St. Louis, MO, USA) and 20 μg/mL gentamycin (Gibco). Parasites were synchronized with the sorbitol method as described. 8 Test compound was dissolved in DMSO to make a stock solution of 10 mM. Two -fold serial dilutions of the test compound were made in the culture medium to cover the range of 400 µM – 400 nM. Fifty microliters of each dilution were mixed in 96 well plate with 150 µL of 2% haematocrit of 0.5% parasitemia (ring stage). DMSO concentration in the highest compound concentration w as 0.1%. After 72 h incubation at 37 °C, the parasite growth was quantified using fluorescent SYBR Green I ® -based assay as described. 9 The half-maximal inhibitory concentration (IC 50) of the test compound was assessed using the non-linear regression fit model in Prism 7 (GraphPad Software). The potent anti-malarial drug, artemisinin, was use in parallel as a positive control. Each concentration of the test compound was tested in duplicate and the assay was repeated three times. The mean and standard deviation of the three repeats were used to estimate the IC50.
IC50 determinations were done using R 3.6.110 and the n-parameter logistic regression (nplr) package11 version 0.1-7. In this package, the weighted nplr, given x (compound concentrations) and […]

[1] = 95% confidence interval in square brackets
[2] = IC50 [CI95%] (µM), unrounded values of the molecular formula strings file
[3] = IC50 [CI95%], 95% confidence interval in square brackets

Thermotoga maritima mPPase (TmPPase), sequence (Q9S5X0 whole entry): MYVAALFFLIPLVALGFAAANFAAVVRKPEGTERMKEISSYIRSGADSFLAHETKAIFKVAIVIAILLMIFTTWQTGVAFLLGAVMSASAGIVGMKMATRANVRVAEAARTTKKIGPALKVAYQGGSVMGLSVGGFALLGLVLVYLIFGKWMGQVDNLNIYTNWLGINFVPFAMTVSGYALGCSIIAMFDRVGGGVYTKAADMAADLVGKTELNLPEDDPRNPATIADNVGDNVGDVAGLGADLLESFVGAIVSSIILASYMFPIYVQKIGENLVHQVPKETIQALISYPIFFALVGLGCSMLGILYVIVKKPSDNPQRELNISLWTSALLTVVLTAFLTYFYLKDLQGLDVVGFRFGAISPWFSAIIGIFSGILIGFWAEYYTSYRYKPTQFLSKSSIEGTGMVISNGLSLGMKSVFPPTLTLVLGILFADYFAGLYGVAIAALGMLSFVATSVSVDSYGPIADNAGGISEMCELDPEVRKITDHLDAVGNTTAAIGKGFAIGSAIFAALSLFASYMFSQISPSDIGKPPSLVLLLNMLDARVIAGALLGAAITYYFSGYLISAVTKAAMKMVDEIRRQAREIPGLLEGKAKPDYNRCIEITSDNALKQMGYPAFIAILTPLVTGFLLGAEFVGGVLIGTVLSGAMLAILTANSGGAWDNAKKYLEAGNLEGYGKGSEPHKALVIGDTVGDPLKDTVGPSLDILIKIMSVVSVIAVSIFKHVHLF

Compound	IC50 [CI95%] [1]	also measured
O=c1[nH]c2ccc(S(=O)(=O)CCO)cc2o1 [Compound 2]	–	LE (ligand efficiency): 0.27
Cc1c(-c2cc(C(=O)O)no2)cnn1C [Compound 6]	Inactive	biological activity (in words): lacked biological activity
CCOC(=O)c1cc(-c2ccccc2)on1 [Compound 10a]	Inactive	–
CCOC(=O)c1cc(-c2ccccc2C(=O)OC)on1 [Compound 10b]	Inactive	–
CCOC(=O)c1cc(-c2cccc(C(=O)OC)c2)on1 [Compound 10c]	Inactive	–
CCOC(=O)c1cc(-c2ccc(C(=O)OC)cc2)on1 [Compound 10d]	Inactive	–
CCOC(=O)c1cc(-c2ccccc2OC)on1 [Compound 10e]	Inactive	–
CCOC(=O)c1cc(-c2cccc(OC)c2)on1 [Compound 10f]	Inactive	–
CCOC(=O)c1cc(-c2ccc(OC)cc2)on1 [Compound 10g]	Inactive	–
CCOC(=O)c1cc(-c2ccc([N+](=O)[O-])cc2)on1 [Compound 10h]	Inactive	–
CCOC(=O)c1cc(-c2cccc(C)c2)on1 [Compound 10i]	Inactive	–
CCOC(=O)c1cc(-c2cccc(C(C)(C)C)c2)on1 [Compound 10j]	Slightly active	IC50 [2]: 1210 µM
CCOC(=O)c1cc(-c2cccc(-c3cc(C(=O)OCC)no3)c2)on1 [Compound 10n]	–	biological activity (in words): neither the carboxylic acid 11n nor the ester 10n were notably active
O=C(O)c1cc(-c2ccccc2)on1 [Compound 11a]	–	biological activity (in words): inactive
O=C(O)c1cc(-c2ccc([N+](=O)[O-])cc2)on1 [Compound 11h]	–	biological activity (in words): did not lead to the desired activity
O=C(O)c1cc(-c2cc(C(F)(F)F)cc(C(F)(F)F)c2)on1 [Compound 11m]	–	biological activity (in words): did not lead to the desired activity
O=C(O)c1cc(-c2cccc(-c3cc(C(=O)O)no3)c2)on1 [Compound 11n]	–	biological activity (in words): neither the carboxylic acid 11n nor the ester 10n were notably active
O=C(Oc1ccccc1Br)c1cc(-c2ccc([N+](=O)[O-])cc2)on1 [Compound 12h]	–	IC50 [2]: 19.6 µM; IC50 [3]: 20 µM; LE (ligand efficiency): 0.19
Cc1cccc(-c2cc(C(=O)Oc3ccccc3Br)no2)c1 [Compound 12i]	–	LE (ligand efficiency): 0.23
CC(C)(C)c1cccc(-c2cc(C(=O)Oc3ccccc3Br)no2)c1 [Compound 12j]	–	LE (ligand efficiency): 0.20
CC(C)(C)c1cc(C(=O)Nc2nccs2)cc(C(C)(C)C)c1 [Compound 13]	–	LE (ligand efficiency): 0.20

Compound	IC50 [CI95%] [1]	also measured
CC(C)(C)c1cc(C(=O)Nc2ccc(S(N)(=O)=O)cc2)cc(C(C)(C)C)c1 [Compound 14]	–	LE (ligand efficiency): 0.16
CC(C)(C)c1cc(C(=O)Nc2ccccc2Br)cc(C(C)(C)C)c1 [Compound 15]	–	LE (ligand efficiency): 0.18
CC(C)(C)c1cc(C(=O)NCC(=O)O)cc(C(C)(C)C)c1 [Compound 19]	Inactive	–
CC(C)(C)c1cc(CCC(=O)O)cc(C(C)(C)C)c1 [Compound 20]	Inactive	–
O=C(O)c1cc(-c2ccc([N+](=O)[O-])cc2)[nH]n1 [Compound 22]	Inactive	–
O=C(O)c1cnc(-c2ccccc2)s1 [Compound 23]	–	LE (ligand efficiency): 0.32
Cc1nc(-c2cc(C(=O)Oc3ccccc3Br)no2)cs1 [Compound 25]	–	fold loss in activity compared to the carboxylic acids: 27 fold
O=C(Oc1ccccc1Br)c1cnc(-c2ccccc2)s1 [Compound 26]	–	fold loss in activity compared to the carboxylic acids: 1.6 fold; LE (ligand efficiency): 0.20
Cc1cc(C)cc(-c2cc(C(=O)Oc3ccccc3)no2)c1 [Compound 27]	–	LE (ligand efficiency): 0.20; fold loss of inhibition on removing the bromine atom (versus 12k): 3.6 fold
Cc1cc(C)cc(-c2cc(C(=O)Nc3ccccc3Br)no2)c1 [Compound 28]	–	biological activity (in words): inactive
Nc1ccc(CO)c(B(O)O)c1 [SI-1]	Inactive	–
Nc1ccc(S(=O)(=O)NC2=NCCS2)cc1 [SI-2]	Inactive	–
O=C(O)c1ccc2c(c1)B(O)OC2 [SI-3]	Inactive	–
O=C(O)CS(=O)(=O)c1ccccc1[N+](=O)[O-] [SI-4]	Inactive	–
CC1(C)CS(=O)(=O)N(c2ccc(S(=O)(=O)Cl)cc2)C1=O [SI-5]	Inactive	–
O=C(O)c1ccc2c(c1)S(=O)(=O)NC2=O [SI-6]	Inactive	–
O=C1CS(=O)(=O)c2ccccc21 [SI-7]	Inactive	–
Nc1ccc(S(=O)(=O)NCC(=O)O)cc1 [SI-8]	Inactive	–
O=C(O)CN1C(=O)c2ccccc2S1(=O)=O [SI-9]	Inactive	–
CC(=O)Nc1ccc(S(=O)(=O)NC(CO)C(=O)O)cc1 (centres unmarked) [SI-10]	Inactive	–
Nc1nnnn1CC(=O)O [SI-11]	Inactive	–

Compound	IC50 [CI95%] [1]	also measured
CS(=O)(=O)Nc1ccc(C#N)cc1 [SI-12]	Inactive	–
CCOC(=O)c1cc(-c2csc(CS(C)(=O)=O)n2)on1 [SI-13]	Inactive	–
CCOC(=O)c1cc(-c2csc(CS(=O)(=O)c3ccccn3)n2)on1 [SI-14]	Inactive	–
CCOC(=O)c1cc(-c2csc(-c3cccc(Cl)c3)n2)on1 [SI-15]	Inactive	–
CCOC(=O)c1cc(-c2csc(Nc3ccccc3)n2)on1 [SI-16]	Inactive	–
CCOC(=O)c1cc(-c2ccc(OC)c(S(=O)(=O)Nc3cc(C)on3)c2)on1 [SI-17]	–	IC50 [2]: 240 µM; IC50 [3]: 240 µM
CCOC(=O)c1cc(-c2ccc(OC)c(S(=O)(=O)Nc3ncccc3C)c2)on1 [SI-18]	Inactive	–
CCOC(=O)c1cc(-c2ccc(OC)c(S(=O)(=O)NC3CCCc4ccccc43)c2)on1 (centres unmarked) [SI-19]	–	IC50 [2]: 29.1 µM; IC50 [3]: 29 µM; LE (ligand efficiency): 0.14
CCOC(=O)c1cc(-c2ccc(OC)c(S(=O)(=O)N3CCCc4ccccc43)c2)on1 [SI-20]	Inactive	–
CCOC(=O)c1cc(-c2ccc(OC)c(S(=O)(=O)N3CC(=O)Nc4ccccc43)c2)on1 [SI-21]	Inactive	–
CCOC(=O)c1cc(-c2ccc(OC)c(S(=O)(=O)N3CCOc4ccccc43)c2)on1 [SI-22]	Inactive	–
CCOC(=O)c1cc(-c2ccc(OC)c(S(=O)(=O)N3CCOCC3)c2)on1 [SI-23]	Inactive	–
COc1ccc(-c2cc(C(=O)O)no2)cc1S(=O)(=O)N1CCOCC1 [SI-24]	Inactive	–
CCOC(=O)c1cc(-c2ccc(OC)c(S(=O)(=O)N3CCc4ccccc43)c2)on1 [SI-25]	Inactive	–
CCOC(=O)c1cc(-c2ccc(OC)c(S(=O)(=O)NC3CCCC3)c2)on1 [SI-26]	Inactive	–
CCOC(=O)c1cc(-c2ccc(OC)c(S(=O)(=O)N3CCCC3)c2)on1 [SI-27]	Inactive	–
COc1ccc(-c2cc(C(=O)O)no2)cc1S(=O)(=O)N1CCCC1 [SI-28]	Inactive	–
CCOC(=O)c1cc(-c2ccc(OC)c(S(=O)(=O)Nc3ccc(F)cc3Cl)c2)on1 [SI-29]	–	IC50 [2]: 180 µM; IC50 [3]: 180 µM
CCOC(=O)c1cc(-c2ccc(OC)c(S(=O)(=O)Nc3cccc(Cl)c3)c2)on1 [SI-30]	Inactive	–
